Data on two molecules can be found in patent US20080118943A1 (priority 2005, published 2008).

A value given as a limit tells only on which side of the number the result lay.

Test [1] relates to folate overproducing L. plantarum strains. In words: Growth rate of folate overproducing L. plantarum strains (pNZ7019, pNZ7021) on modified CDM with methotrexate. It is filed as cell-based, Lactobacillus plantarum. The conditions noted are these: 2.5 mg/L MTX. The procedure: (§1) Wild type L. plantarum WCFS1 strains and its derivatives were grown at 37° C. on Chemically Defined Media (CDM), containing 19 g/L β-phosphoglycerate (6) or modified CDM. In this modified CDM, glycine, inosine, orotic acid, thymidine, guanine, adenine, uracil and xantine were omitted from the normal CDM. Additionally […] chloroamphenicol was added to all the media used. Methotrexate (Sigma, […]) was added to both types of CDM, in concentrations ranging from 0 to 10 mg/l.
(§2) Microtiter plates were used to determine the growth rate of the three L. plantarum strains harbouring the different vectors. The growth of the three strains was monitored in a 96 well microtiter plate for 35 hours using a spectrophotometer (SPECTRAmax®, Molecular Devices, Sunnyvale, Calif., USA). The growth was tested on the two types of media, and each construct was analyzed in triplicate on both media for the following MTX concentrations: 0, 0.3125, 0.625, 1.25 and 2.5 mg/L.

For test [2], the system named is L. plantarum strains (wild type, pNZ7019, pNZ7021). Put plainly: Growth rate of L. plantarum strains on CDM with folate dependent metabolites and methotrexate. Conditions: 0 to 2.5 mg/L MTX. It is filed as cell-based, Lactobacillus plantarum. The procedure:
as §1, §2

Test [3] relates to L. lactis. The conditions noted are these: cited from earlier work.
The test system of test [4] is wild type L. plantarum WCFS1. In words: Growth rate of wild type L. plantarum on modified CDM (lacking folate dependent metabolites) with methotrexate. The test is classed as cell-based, Lactobacillus plantarum. The conditions noted are these: for growth inhibition of the wild type strain: modified CDM. As for the experimental part:
as §1, §2

In the case of `CN(Cc1cnc2nc(N)nc(N)c2n1)c1ccc(C(=O)N[C@@H](CCC(=O)O)C(=O)O)cc1` [MTX, methotrexate], the “growth of the folate overproducing strains” value in test [1] is “grew well”. Also, the “growth inhibition in the presence of folate dependent metabolites” value in test [2] was “none of the tested strains was significantly inhibited”. For the same molecule, the sensitivity to antifolate entry in test [3] was “insensitive”. Further, the “growth inhibition of the wild type strain” value in test [4] (2.5 mg/L MTX) was “complete growth inhibition”; in test [4] (between 0 and 2.5 mg/L MTX), “dose dependent growth inhibition”. Besides, the “growth rate (μ) of the wild type” value in test [4] (1.25, 1.5, 2.0 and 2.5 mg/l MTX, medium lacking folate dependent metabolites) is less than 0.05 h⁻¹.

For the molecule `COc1cc(Cc2cnc(N)nc2N)cc(OC)c1OC` [trimethoprim], the sensitivity to antifolate result in test [3] is reported as “insensitive”.
